The text below walks through data of PubChem BioAssay (NCI).

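How tested: cells in 96-well plates exposed to compound for 48 hours at five concentrations. GI50: concentration for 50% inhibition of growth. TGI: concentration producing complete growth inhibition.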

Common to all, as to experiment: NCI anticancer screen, dose series, 48 h
For assay [1], the system named is UACC-257 melanoma.
Assay [2] concerns T-47D breast.
Assay [3] has as its system MOLT-4 leukemia.
Assay [4] deals with OVCAR-8 ovarian.
Assay [5] relates to MDA-MB-231 breast.
In assay [6] the test system is HOP-92 NSCLC.
Assay [7] has as its system 786-0 renal.
For assay [8], the system named is NCI-H23 lung.
Assay [9] has as its system SNB-75 CNS.
Assay [10] deals with SK-MEL-28 melanoma.

On to `CCOC(=O)c1ccccc1-c1c2ccc(=[N+](C)C)cc-2oc2cc(N(C)C)ccc12`, for which the GI50 is 0.198 µM in assay [1]; 0.104 µM in [2]; 0.488 µM in assay [3]; 0.195 µM in assay [4]; 0.301 µM in [5]; 0.619 µM in [6]. For the same molecule, the GI50 was 0.94 µM in assay [7], 0.231 µM in assay [8], 0.196 µM in assay [9] and 0.687 µM in assay [10]. The TGI in assay [1] was 7.58 µM; in [2] it was 19.8 µM; in assay [3] it was 35.7 µM; in assay [4], greater than 22.8 µM; in assay [5], 10.7 µM; in assay [6], 3.96 µM. Further, the TGI was greater than 36.5 µM in assay [7], 11.9 µM in assay [8], 11 µM in [9] and 13 µM in [10].
For `C1CC[N-]CC1.CC(=N\O)/C(C)=N/O.CC(=N\O)/C(C)=N/O.[CH2-]CCN1CCOCC1.[Co+2]`, the GI50 is 98.1 µM in assay [1]; greater than 100 µM in assay [2]; 5.91 µM in assay [3]; greater than 100 µM in [4]; greater than 100 µM in assay [5]; greater than 100 µM in [6]. The GI50 in [7], in assay [9] and in assay [10] was greater than 100 µM each time. Moreover, the TGI in assay [1] is greater than 100 µM; in [2] it was greater than 100 µM; in [3] it was 39.5 µM; in assay [4], greater than 100 µM; in assay [5] it was greater than 100 µM; in [6] it was greater than 100 µM. For the same molecule, the TGI in assay [7], in [9] and in assay [10] was greater than 100 µM in each case.
Turning to `COc1ccc(-c2c(N)n[nH]c2-c2cc(OC)c(OC)c(OC)c2)cc1`, the GI50 in [1] is 23.6 µM; in assay [2], 25.3 µM; in [3], 0.275 µM; in assay [4], 0.424 µM; in [5] it was 0.56 µM; in [6] it was 0.499 µM. In addition, the GI50 in assay [7] is 0.388 µM; in [8], 0.25 µM; in [9] it was 0.216 µM; in [10] it was 5.57 µM. In addition, the TGI in [1], in assay [2], in [3], in assay [4], in assay [5] and in assay [6] was greater than 100 µM in each case. Further, the TGI in assay [7] is 35.6 µM; in assay [8], 43.7 µM; in [9], greater than 100 µM; in [10], greater than 100 µM.
As for `O=C(Nc1ccc(I)cc1F)c1cc(I)ccc1O`, the GI50 is 0.73 µM in assay [1]; 0.649 µM in assay [2]; 0.965 µM in assay [3]; 0.802 µM in assay [4]; 0.639 µM in assay [5]; 0.179 µM in [6]. Besides, the GI50 is 1.03 µM in [7], 0.531 µM in assay [8], 0.752 µM in assay [9] and 0.435 µM in [10]. Also, the TGI in assay [1] is 2.6 µM; in [2], 2.94 µM; in assay [3], 3.5 µM; in assay [4], greater than 100 µM; in [5], 2.64 µM; in [6], 0.777 µM. In addition, the TGI in assay [7] is 9.51 µM; in [8], 2.25 µM; in [9], 6.75 µM; in assay [10] it was 2.84 µM.
On to `CCc1nc(-n2c(-c3ccccc3)nc3ccccc3c2=O)nc(N)c1-c1ccc(Cl)cc1`, for which the GI50 in [1] is 40.3 µM; in assay [2] it was 27 µM; in assay [3] it was 6.13 µM; in assay [4] it was 7.96 µM; in assay [5] it was greater than 100 µM; in [6] it was 13.4 µM. For the same molecule, the GI50 is 5.64 µM in [7], 2.9 µM in assay [8], 48.2 µM in [9] and greater than 100 µM in assay [10]. For the same molecule, the TGI is greater than 100 µM in assay [1]; 81 µM in assay [2]; greater than 100 µM in assay [3]; greater than 100 µM in [4]; greater than 100 µM in assay [5]; greater than 100 µM in assay [6]. Further, the TGI in assay [7] was greater than 100 µM; in assay [8], 39.7 µM; in [9] it was greater than 100 µM; in assay [10], greater than 100 µM.
`CN1CCN(CCOc2ccc(-c3cnc4c(-c5ccc(F)cc5)cnn4c3)cc2)CC1`: the GI50 in assay [1] is 2.11 µM; in [2], 1.49 µM; in assay [3], 1.56 µM; in [4] it was 2.14 µM; in assay [5], 1.57 µM; in [6] it was 1.43 µM. In addition, the GI50 was 1.73 µM in assay [7], 1.73 µM in assay [8], 1.34 µM in assay [9] and 1.87 µM in assay [10]. In addition, the TGI was found to be 4.42 µM in assay [1]; 3.86 µM in assay [2]; 3.59 µM in assay [3]; 5.08 µM in assay [4]; 3.07 µM in assay [5]; 3.3 µM in assay [6]. The TGI is 3.2 µM in assay [7], 3.25 µM in [8], 3.32 µM in assay [9] and 3.62 µM in assay [10].
For `COc1ccc(NC(=O)/C=C(C)/C=C/C=C(C)\C=C\C2=C(C)CCCC2(C)C)cc1`, the GI50 is 14.1 µM in assay [1]; 3.79 µM in assay [2]; 55.1 µM in [3]; greater than 100 µM in [4]; 5.21 µM in [5]; 90.3 µM in [7]. Moreover, the GI50 in [8] was 30.1 µM; in assay [9] it was 2.15 µM; in assay [10] it was greater than 100 µM. In addition, the TGI was greater than 100 µM in assay [1]; 43.1 µM in assay [2]; greater than 100 µM in assay [3]; greater than 100 µM in [4]; 59 µM in assay [5]; 30.4 µM in assay [6]. For the same molecule, the TGI in assay [7], in assay [8], in assay [9] and in assay [10] was greater than 100 µM in each case.
With `O=S(=O)(O)ONC1=NCCN1`, the GI50 in [1] is greater than 100 µM; in assay [2], 38.8 µM; in [3], 49.7 µM; in assay [4], greater than 100 µM; in assay [5], greater than 100 µM; in assay [6], greater than 100 µM. The GI50 in assay [7] is 90.6 µM; in [8], 94.2 µM; in assay [9], greater than 100 µM; in [10], greater than 100 µM. Also, the TGI in assay [1], in assay [2], in [3], in assay [4], in assay [5] and in assay [6] was greater than 100 µM each time. The TGI in assay [7], in [8], in [9] and in [10] was greater than 100 µM in each case.
For the molecule `Cc1nnc(-c2ccc(-c3nc4ccccc4o3)cc2)o1`, the GI50 was 34.7 µM in assay [1]; greater than 100 µM in assay [2]; 85.6 µM in assay [4]; 36.3 µM in assay [5]; greater than 100 µM in [6]; greater than 100 µM in assay [7]. The GI50 in assay [8] and in [10] was greater than 100 µM throughout. In addition, the TGI in assay [1] was 90.7 µM; in assay [2], greater than 100 µM; in assay [4], greater than 100 µM; in assay [5] it was greater than 100 µM; in [6] it was greater than 100 µM; in [7], greater than 100 µM. Further, the TGI in assay [8] and in assay [10] was greater than 100 µM throughout.
As for `O=C(c1ccccc1)C1C(C(=O)c2ccccc2)C(c2ccccc2)N(c2ccccc2)C1c1ccccc1` (stereo not given), the TGI in [1], in assay [2], in assay [3], in assay [4], in assay [5] and in assay [6] was greater than 100 µM throughout. The TGI in assay [7], in assay [8] and in assay [10] was greater than 100 µM throughout.
`COc1cc(/C=N\O)nc(-c2ccccn2)c1`: the TGI in assay [1], in assay [2], in assay [3], in assay [5], in assay [6] and in [7] was greater than 100 µM in each case. Moreover, the TGI was greater than 100 µM in assay [8], greater than 51.6 µM in [9] and greater than 100 µM in [10].
Regarding `Nc1c(C(=O)Nc2cccc(Br)c2)sc2nc3c(cc12)C(O)CCC3` (stereo not given), the GI50 in [2] is 13.9 µM; in [3], 0.518 µM; in assay [4], 0.77 µM; in [5], 2.24 µM; in assay [6], 0.383 µM; in [7], 0.645 µM. Further, the GI50 in [8] is 0.761 µM; in assay [9] it was 0.359 µM; in assay [10], 4.43 µM. The TGI is greater than 100 µM in [2]; 98 µM in [3]; 37.6 µM in assay [4]; greater than 85.7 µM in assay [5]; 11.4 µM in [6]; 36.1 µM in assay [7]. Also, the TGI in assay [8] is greater than 100 µM; in assay [9], 17.5 µM; in assay [10] it was greater than 100 µM.
On to `CCOC(=S)SCN1C(=O)c2ccccc2S1(=O)=O`, for which the GI50 was 18.5 µM in assay [1]; 24.2 µM in assay [2]; 32.7 µM in assay [3]; 20.8 µM in assay [4]; 19.3 µM in assay [5]; 20.9 µM in assay [7]. Moreover, the GI50 in assay [8] is 12.6 µM; in assay [9], 4.68 µM; in [10], 3.42 µM. Also, the TGI in assay [1] is 55.2 µM; in assay [2], 80.5 µM; in [3] it was greater than 100 µM; in assay [4], greater than 100 µM; in assay [5], 40.9 µM; in [7], 47.9 µM. Besides, the TGI worked out at 27.8 µM in assay [8], 29.6 µM in assay [9] and 15 µM in assay [10].
Turning to `Oc1ccc(Cl)cc1-c1cc(-c2ccc(F)cc2)n[nH]1`, the GI50 in [1] was 2.96 µM; in assay [2], 1.6 µM; in assay [3], 2.8 µM; in assay [4], 1.85 µM; in assay [5], 1.19 µM; in assay [7], 1.82 µM. For the same molecule, the GI50 in [8] was 1.61 µM; in [9], 2.07 µM; in assay [10] it was 8.35 µM. Moreover, the TGI in [1] was found to be 21 µM; in assay [2] it was 38.8 µM; in assay [3], 41.4 µM; in assay [4], 5.39 µM; in assay [5], 4.35 µM; in [7], 3.41 µM. Also, the values for the TGI in assay [8], in [9] and in assay [10] were 4.09 µM, 9.19 µM and greater than 100 µM, respectively.
Consider `O=C1c2ccn(CCCCN3CCC(O)CC3)c2C(=O)c2c1c(O)c1ccccc1c2O`, for which the GI50 in [1] is 17.3 µM; in assay [2], greater than 46 µM; in assay [4], 25.6 µM; in [5], 13.3 µM; in assay [6], 8.95 µM; in assay [7] it was 13.1 µM. The GI50 is 1.97 µM in assay [8], 42.6 µM in assay [9] and 13.3 µM in assay [10]. In addition, the TGI was greater than 64.1 µM in assay [1]; greater than 67.6 µM in assay [2]; 75.3 µM in assay [4]; 38.3 µM in assay [5]; 41.1 µM in assay [6]; 31.1 µM in [7]. Further, the TGI in assay [8] is 3.84 µM; in [9], greater than 61.2 µM; in [10] it was greater than 41 µM.
In the case of `Cc1cc(O)cc2c1c(=O)c1ccccc1n2C`, the TGI in assay [1] was greater than 100 µM; in [2], greater than 100 µM; in assay [3], greater than 100 µM; in assay [4], greater than 100 µM; in assay [5], greater than 100 µM; in assay [6] it was 93.6 µM. The TGI in assay [7], in assay [8] and in assay [9] was greater than 100 µM throughout.
Take `Cn1ncc(-c2ccc3c(=O)[nH]nc(CN)c3c2)c1-c1c(F)cc2ccccc2c1C#N`: the GI50 in assay [1] is 7.28 µM; in [2], 3.48 µM; in assay [3] it was 2.29 µM; in [4], 4.34 µM; in [5] it was 8.53 µM; in assay [6] it was 4.06 µM. Besides, the GI50 in [7] is 5.21 µM; in assay [9], 4.44 µM; in assay [10], 10.6 µM. Also, the TGI is 20.8 µM in assay [1]; 17.6 µM in assay [2]; 12.6 µM in assay [3]; 17.5 µM in [4]; 23.4 µM in assay [5]; 18.1 µM in [6]. Besides, the TGI was 18.9 µM in assay [7], 19.5 µM in assay [9] and 23 µM in assay [10].
